The experiment concerns MARC-produced cerebral tissues. Kind of experiment: Live calcium imaging of interconnected MARC-produced cerebral tissues in the iS3CC chip after Penicillin G treatment of one chamber. Type of experiment: cell-based, human. The protocol:
The transparent PDMS devices were repeatedly washed using 70% ethanol followed by sterilization using UV light in the safety cabinets (3×5 min). After neuronal induction phase, the cells were disassociated using Accutase and resuspended in 35 μl of a mixture of cold GFR-Matrigel and differentiation medium with a 70:30 v/v ratio at a final concentration of 50,000 cells per chamber. The chips containing cells and Matrigel-medium mixture were placed in a Petri dish to prevent contamination, since the chips have an open top, and kept in an incubator at 37° C. and 5% CO2 for 5 min to polymerize the Matrigel mixture. After that, an additional 200 μl of differentiation medium was added to each chamber and the chips were placed back into the incubator. The medium was refreshed and the culture was continued as described above, with gentler handing to prevent damage to the gel and cells.
Live calcium imaging was performed with the same widefield epifluorescence microscope, equipped with temperature, CO2, and humidity control. The tissues were incubated in the recommended concentrations of Fluo-4 direct according to the manufacturer (Molecular Probes, F10471) for 50 min in the incubator at 37° C. and 10 min at room temperature. After that, the tissues were washed five times with the neural maintenance medium. The calcium surges were recorded using an excitation of 488 nm and an emission of 530 nm every 10 seconds. Fluorescence images were obtained using a widefield epifluorescence microscope (Leica DMi8) equipped with either a 5×/0.15 HC PL Fluotar or a 10×/0.32 HC PL Fluotar objective lens. […]
Neuronal activity was analyzed from the time-lapse images. To account for possible drifts or deformations of the tissues, the location of the cells was detected in each frame and linked across the frames using the Mosaic particle tracker plugin in ImageJ. The fluorescence intensity of each detected cell was calculated from the image intensity data using MATLAB. Occasional gaps in the time traces, due to the cells not being detected in certain frames, were filled using spline interpolation of the intensity values. The background fluorescence in each chamber was calculated in the same way using 10 arbitrarily selected cell-sized ROIs in the cell-free regions of each chamber, averaged, and subtracted from the real (cell) data. Further, the intensity values were corrected for imaging artifacts due to out-of-focus fluorescence by subtracting the mean intensity of an annular mask with an outer radius of 18 pixels and an inner radius of 9 pixels (i.e., size of the ROI) for each ROI. […]

Structures can show the parent of a compound that is named as a salt.

For `CC1(C)S[C@@H]2[C@H](NC(=O)Cc3ccccc3)C(=O)N2[C@H]1C(=O)O` [Penicillin G, Penicillin G sodium salt], where the note is “4 cells per tissue, post-treatment with Penicillin G (FIG. 4e,f)”, the “propagation of synchronized transient peaks from treated tissue to cells in the untreated tissue (share of the time)” value is approximately 45%. Besides, the “fluorescence in the treated tissue compared to the baseline” value (treated chamber, immediately following treatment, Penicillin G sodium salt 100 mg/ml bath application, Fluo-4 calcium imaging) is “increased amount of fluorescence”. Moreover, the “neuronal activity and synchrony of transient spikes in the treated tissue” value (treated chamber, post-treatment, Penicillin G 100 mg/ml, indicative for abnormal excessive discharges) is “increased magnitude and frequency of neuronal activity, as well as synchrony of transient spikes”. Also, under “untreated chamber connected across 8 μm porous membrane, post-treatment of the other chamber”, the “intensity and neuronal activity of neurons in the untreated chamber” value was “increased intensity and neuronal activity”.
